{
  "source": "patent US11028085B2",
  "about": "“Substituted isoindolin-1-ones and 2,3-dihydro-1h-pyrrolo[3,4-c]pyridin-1-ones as hpk1 antagonists” (Nimbus Saturn, Inc., priority 2019, dated 2021)",
  "note": "Where a name gives a salt, the structure may show the parent alone.",
  "data": [
    {"biological_target": "HPK1 (Homo sapiens (Human), UniProt Q92918)", "sequence (Q92918 whole entry)": "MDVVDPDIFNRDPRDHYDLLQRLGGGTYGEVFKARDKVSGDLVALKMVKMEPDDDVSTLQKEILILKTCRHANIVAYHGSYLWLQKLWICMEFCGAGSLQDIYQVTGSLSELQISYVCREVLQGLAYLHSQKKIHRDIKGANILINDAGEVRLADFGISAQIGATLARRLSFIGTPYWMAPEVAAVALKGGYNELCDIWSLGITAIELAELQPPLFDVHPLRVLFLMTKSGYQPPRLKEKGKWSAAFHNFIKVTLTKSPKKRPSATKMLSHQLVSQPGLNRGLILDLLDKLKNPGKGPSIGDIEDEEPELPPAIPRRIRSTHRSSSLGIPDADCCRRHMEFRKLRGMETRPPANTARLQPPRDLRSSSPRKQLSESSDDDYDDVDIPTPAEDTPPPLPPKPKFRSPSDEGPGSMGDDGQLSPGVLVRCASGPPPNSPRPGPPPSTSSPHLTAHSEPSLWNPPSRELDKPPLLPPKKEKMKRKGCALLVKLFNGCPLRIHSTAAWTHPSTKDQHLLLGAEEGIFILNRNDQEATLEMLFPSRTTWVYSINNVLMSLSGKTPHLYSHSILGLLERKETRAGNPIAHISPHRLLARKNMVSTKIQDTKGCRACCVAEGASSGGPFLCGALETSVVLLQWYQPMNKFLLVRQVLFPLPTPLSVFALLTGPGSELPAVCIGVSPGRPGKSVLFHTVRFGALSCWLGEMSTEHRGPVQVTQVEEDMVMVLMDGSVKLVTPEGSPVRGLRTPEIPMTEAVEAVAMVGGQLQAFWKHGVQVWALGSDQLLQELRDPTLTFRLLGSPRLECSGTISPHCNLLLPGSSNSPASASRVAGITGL", "experiment": "HPK1 biochemical enzyme assay (microfluidic mobility shift assay)", "conditions": "1.5 nM HPK1, ATP 1 mM final, 60 min at RT, Caliper EZ Reader; read-out: HPK1 1000UMATP caliper IC50", "method": "HPK1 biochemical enzyme assay: HPK1 enzyme inhibition was measured using a microfluidic mobility shift assay. […] Test compounds were titrated in ten point curves (top final assay concentration […]), and preincubated with enzyme/substrate mix for 30 min prior to initiation of the reaction by addition of ATP (1 mM final concentration) and substrate (1 μM final concentration; Carna Biosciences) diluted in assay buffer supplemented by MgCl2 (final assay concentration of 5 mM). Following 60 min incubation at RT, the reaction was terminated by addition of 60 µl/well termination buffer (Carna Biosciences) and signal determination using a Caliper EZ Reader (Perkin Elmer, UK). […] The compound numbers correspond to the compound numbers in Table 1.", "units": {"IC50": "nM"}, "values": [
      {"compound": "7-((5-(4-hydroxypiperidin-1-yl)pyridin-2-yl)amino)-4-(imidazo[1,2-a]pyrazin-5-yl)-2,3-dihydro-1H-pyrrolo[3,4-c]pyridin-1-one [I-376]", "IC50": "100 to 1000"},
      {"compound": "7-((5-((3R,4R)-4-fluoro-3-hydroxypiperidin-1-yl)pyridin-2-yl)amino)-4-(imidazo[1,2-a]pyrazin-3-yl)isoindolin-1-one [I-434]", "IC50": "< 100"},
      {"compound": "CN(C)Cc1nc(Nc2cnc(-c3cccc4c3ccn4C)c3c2C(=O)NC3)ccc1[C@@H]1CCOC1", "note": "(single isomer, unassigned) [I-540]", "IC50": "< 100"},
      {"compound": "CC1NC(=O)c2c(Nc3ccc(N4CCC(O)CC4)cn3)ccc(-c3ccnc4c3ccn4C)c21", "note": "(stereo in doubt) [I-286, (S)-7-((5-(4-hydroxypiperidin-1-yl)pyridin-2-yl)amino)-3-methyl-4-(1-methyl-1H-pyrrolo[2,3-b]pyridin-4-yl)isoindolin-1-one]", "IC50": "> 1000"},
      {"compound": "CC1NC(=O)c2c(Nc3ccc(N4CCC(O)CC4)cn3)ccc(-c3ccnc4c3ccn4C)c21", "note": "(stereo in doubt) [I-287, (R)-7-((5-(4-hydroxypiperidin-1-yl)pyridin-2-yl)amino)-3-methyl-4-(1-methyl-1H-pyrrolo[2,3-b]pyridin-4-yl)isoindolin-1-one]", "IC50": "< 100"},
      {"compound": "Cc1ccn2c(-c3ccc(Nc4ccc([C@H]5CCOC5)c(CN(C)C)n4)c4c3CNC4=O)cnc2n1", "note": "(stereo in doubt) [I-561, 7-[[6-[(dimethylamino)-methyl]-5-tetralndrofliran-3-yl-2-pyridyl]amino] 4-(7-methylimidazo [1,2-a]pyrimidin-3-yl)isoindolin-1-one]", "IC50": "< 100"},
      {"compound": "Cc1cccn2c(-c3ccc(Nc4ccc(C5CCOC5)c(CN(C)C)n4)c4c3CNC4=O)cnc12", "note": "(stereo in doubt) [I-695, (S)-7-((6-((dimethylamino)-methyl)-5-(tetrahydrofuran-3-yl)pyridin-2-yl)amino)-4-(8-methylimidazo [1,2-a]pyridin-3-yl)isoindolin-1-one]", "IC50": "< 100"},
      {"compound": "Cc1cccn2c(-c3ccc(Nc4ccc(C5CCOC5)c(CN(C)C)n4)c4c3CNC4=O)cnc12", "note": "(stereo in doubt) [I-696, (R)-7-((6-((dimethylamino)-methyl)-5-(tetrahydrofuran-3-yl)pyridin-2-yl)amino)-4-(8-methylimidazo [1,2-a]pyridin-3-yl)isoindolin-1-one]", "IC50": "< 100"},
      {"compound": "COCC1CN(c2ccc(Nc3ccc(-c4cnc5cc(F)ccn45)c4c3C(=O)NC4)nc2CN(C)C)CCO1", "note": "(stereo in doubt) [I-711, (R)-7-((6-((dimethylamino)-methyl)-5-(2-(methoxymeth-yl)morpholino)pyridin-2-yl)amino)-4-(7-fluoroimidazo [1,2-a]pyridin-3-yl)isoindolin-1-one]", "IC50": "< 100"},
      {"compound": "O=C1NCc2c(-c3cnc4ccccn34)ccc(Nc3ccc(N4CCC(O)CC4)cn3)c21", "note": "[I-125, 7-[[5-(4-hydroxy-1-piperidyl)-2-pyridyl]amino]-4-imidazo[1,2-a]pyridin-3-yl-isoindolin-1-one]", "IC50": "< 100"},
      {"compound": "O=C1NCc2c(-c3cnc4cc(F)ccn34)ccc(Nc3ccc(N4CCC(O)CC4)cn3)c21", "note": "[I-138]", "IC50": "< 100"},
      {"compound": "O=C1NCc2c(-c3cnc4cc(CO)ccn34)ccc(Nc3ccc(N4CCC(O)CC4)cn3)c21", "note": "[I-177, 4-[7-(hydroxymeth-yl)imidazo[1,2-a]pyridin-3-yl]-7-[[5-(4-hydroxy-1-piperidyl)-2-pyripyl]amino] isoindolin-1-one]", "IC50": "< 100"},
      {"compound": "Cc1cnc2c(-c3ccc(Nc4ccc(N5CCC(O)CC5)cn4)c4c3CNC4=O)cnn2c1", "note": "[I-186, 7-[[5-(4-hydroxy-1-piperidyl)-2-pyridyl)amino]-4-(6-methylpyra-zolo[1,5-a]pyrimidin-3-yl)isoindolin-1-one]", "IC50": "< 100"},
      {"compound": "O=C1NCc2c(-c3cnc4ccccn34)ncc(Nc3ccc(N4CCOCC4)cn3)c21", "note": "[I-198, 4-imidazo[1,2-a]pyridin-3-yl-7-[(5-morpholino-2-pyridyl)-amino]-2,3-dihydropyrrolo [3,4-c]pyridin-1-one]", "IC50": "100 to 1000"},
      {"compound": "Cn1ccc2c(-c3ncc(Nc4ccc(N5CCNCC5)cn4)c4c3CNC4=O)cccc21", "note": "[I-266, 4-(1-methyl-1H-indol-4-yl)-7-((5-(piperazin-1-yl)pyridin-2-yl)amino)-2,3-dihydro-1H-pyrrolo[3,4-c]pyridin-1-one]", "IC50": "< 100"},
      {"compound": "O=C1NCc2c(-c3cnc4cc(F)ccn34)ccc(Nc3ccc(C4CCOCC4)cn3)c21", "note": "[I-341]", "IC50": "< 100"},
      {"compound": "O=C1NCc2c(-c3cnc4cc(F)ccn34)ccc(Nc3ccn(C4CCOCC4)n3)c21", "note": "[I-382, 4-(7-fluoroimidazo [1,2-a]pyridin-3-yl)-7-((1-(tetrahydro-2H-pyran-4-yl)-1H-pyrazol-3-yl)amino)isoin-dolin-1-one]", "IC50": "> 1000"},
      {"compound": "O=C1NCc2c(-c3ncc4cnccn34)ccc(Nc3ccc(N4CCC(O)CC4)cn3)c21", "note": "[I-398, 7-((5-(4-hydroxypipendin-1-yl)pyridin-2-yl)amino)-4-(imidazo[1,5-a]pyrazin-3-yl)isoindolin-1-one]", "IC50": "100 to 1000"},
      {"compound": "Cc1ccc2c(-c3ccc(Nc4ccc(CN5CCOCC5)cn4)c4c3CNC4=O)cnn2c1", "note": "[I-469, 4-(6-methylpyrazolo[1,5-a]pyridin-3-yl)-7-[[5-(morpholino-methyl)-2-pyridyl]amino] isoindolin-1-one]", "IC50": "< 100"},
      {"compound": "Cc1ccn2c(-c3ncc(Nc4cccc(N5CC[C@@H]6CNC[C@@H]65)n4)c4c3CNC4=O)cnc2c1F", "note": "[I-480, 7-[[6-[(3aR,6aR)-3.3a,4,5,6.6a-hexahydro-2H-pyrrolo[2,3-c]pyrrol-1-yl]-2-pyridyl]amino]-4-(8-fluoro-7-methyl-imidazo[1,2-a]pyridin-3-yl)-2,3-dihydropyrrolo [3,4-c]pyridin-1-one]", "IC50": "100 to 1000"},
      {"compound": "Cc1ccn2c(-c3ncc(Nc4cccc(N5CCC6CNCC65)n4)c4c3CNC4=O)cnc2c1F", "note": "(stereo not drawn) [I-481]", "IC50": "< 100"},
      {"compound": "CC(C)(O)[C@H]1CN(c2ccc(Nc3ccc(-c4cnc5cnccn45)c4c3C(=O)NC4)nc2)CCO1", "note": "[I-486, 7-[[5-[(2R)-2-(1-hydroxy-1-methylethyl)morpholin-4-yl]-2-pyridyl]amino]-4-imidazo[1,2-a]pyrazin-3-yl-isoindolin-1-one]", "IC50": "< 100"},
      {"compound": "O=C1NCc2c(-c3cnc4cc(F)ccn34)ccc(Nc3ccc(N4CCC(N5CCOCC5)CC4)cn3)c21", "note": "[I-488, 4-(7-fluoroimidazo [1,2-a]pyridin-3-yl)-7-[[5-(4-morpholino-1-piperidyl)-2-pyridyl]amino] isoindolin-1-one]", "IC50": "< 100"},
      {"compound": "Cc1cccn2c(-c3ncc(Nc4ccc(C5CCOC5)c(CN(C)C)n4)c4c3CNC4=O)cnc12", "note": "(stereo not drawn) [I-539]", "IC50": "< 100"},
      {"compound": "C[C@@H]1CN(c2ccc(Nc3ccc(-c4cnc5cc(F)ccn45)c4c3C(=O)NC4)nc2CN(C)C)CCO1", "note": "[I-541, 7-[[6-[(dimethylamino)-methyl]-5-[(2R)-2-methylmorpho-lin-4-yl]-2-pyridyl]amino] 4-(7-fluoroimidazo [1,2-a]pyridin-3-yl)isoindolin-1-one]", "IC50": "< 100"},
      {"compound": "Cn1ccc2c(-c3ncc(Nc4ccc(C5CCOC5)c(CN5CCCC5)n4)c4c3CNC4=O)ccnc21", "note": "(stereo not drawn) [I-552, 4-(1-methylpyrrolo [2,3-b]pyridin-4-yl)-7-[[6-(pyrrolidin-1-ylmethyl)-5-tetralndrofuran-3-yl-2-pyridyl]amino]-2,3-dihydropyrrolo [3,4-c]pyridin-1-one]", "IC50": "< 100"},
      {"compound": "O=C1NCc2c(-c3cnc4cc(F)ccn34)ccc(Nc3ccc(N4CCO[C@@H]5CNC[C@@H]54)cn3)c21", "note": "[I-690]", "IC50": "< 100"},
      {"compound": "O=C1NCc2c(-c3cnc4cc(F)ccn34)ccc(Nc3ccc(N4CCO[C@H]5CNC[C@H]54)cn3)c21", "note": "[I-694, 4-(7-fluoroimidazo [1,2-a]pyridin-3-yl)-7-((5-((4aR,7aS)-hexahydro-pyrrolo[3,4-b][1.4]oxazin-4(4aH)-yl)pyridin-2-yl)amino)isoin-dolin-1-one]", "IC50": "< 100"},
      {"compound": "CN1CCN(c2nc(Nc3ccc(-c4cnc5cc(F)ccn45)c4c3C(=O)NC4)ccc2[C@H]2CCOC2)CC1", "note": "[I-801, (R)-4-(7-fluoroimidazo [1,2-a]pyridin-3-yl)-7-((6-(4-methylpiperazin-1-yl)-5-(tetrahydrofuran-3-yl)pyridin-2-yl)amino)isoin-dolin-1-one]", "IC50": "< 100"},
      {"compound": "CN1CCN(c2nc(Nc3ccc(-c4cnc5cc(F)ccn45)c4c3C(=O)NC4)ccc2[C@@H]2CCOC2)CC1", "note": "[I-802, (S)-4-(7-fluoroimidazo [1,2-a]pyridin-3-yl)-7-((6-(4-methylpiperazin-1-yl)-5-(tetrahydrofuran-3-yl)pyridin-2-yl)amino)isoin-dolin-1-one]", "IC50": "< 100"},
      {"compound": "CN(C)Cc1nc(Nc2cnc(-c3ccnc4c3ccn4C)c3c2C(=O)NC3)ccc1O[C@@H]1CCOC1", "note": "[I-805, (R)-7-((6-((dimethylamino)-methyl)-5-((tetrahydrofur-an-3-yl)oxy)pyridin-2-yl)amino)-4-(1-methyl-1H-pyrrolo[2,3-b]pyridin-4-yl)-2,3-dihydro-1H-pyrrolo[3,4-c]pyridin-1-one]", "IC50": "< 100"},
      {"compound": "CN1CC(Oc2nc(Nc3ccc(-c4cnc5cc(F)ccn45)c4c3C(=O)NC4)ccc2[C@@H]2CCOC2)C1", "note": "[I-816, (S)-4-(7-fluoroimidazo [1,2-a]pyridin-3-yl)-7-((6-((1-methylazetidin-3-yl]oxy)-5-(THF-3-yl)pyridin-2-yl)amino)isoin-dolin-1-one]", "IC50": "< 100"},
      {"compound": "COCC1(O)CCN(c2ccc(Nc3cnc(-c4ccnc5c4ccn5C)c4c3C(=O)NC4)nc2CN(C)C)CC1", "note": "[I-851, 7-1(6-[(dimethylamino)-methyl (-5-[4-hydroxy-4-(methoxymeth-yl)-1-piperidyl]-2-pyridyl]amino]-4-(1-methylpyrrolo [2,3-b]pyridin-4-yl)-2,3-dihydropyrrolo [3,4-c]pyridin-1-one Formate salt]", "IC50": "< 100"}
    ]}
  ]
}
